Active and inactive are the calls of the source.
Experiments:
[1] = target: Heat shock protein HSP 90-alpha (Homo sapiens, UniProt P07900); assay type: functional, organism-based
Phospholipase A2 = Phospholipase A2 (Homo sapiens, UniProt P04054); assay type: functional;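 note: confirmatory dose-response counterscreen on phospholipase A2, testing hits that came from an ultra-high-throughput screen for ATG4B inhibitors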
Genome polyprotein = Genome polyprotein (dengue virus type 2, UniProt P29990); assay: flavivirus cap methylation enzyme inhibition – biochemical, confirmation dose response, primary screen (AID 588689); assay type: functional
Chain of Genome polyprotein (P29990 2492-3391 limits assumed): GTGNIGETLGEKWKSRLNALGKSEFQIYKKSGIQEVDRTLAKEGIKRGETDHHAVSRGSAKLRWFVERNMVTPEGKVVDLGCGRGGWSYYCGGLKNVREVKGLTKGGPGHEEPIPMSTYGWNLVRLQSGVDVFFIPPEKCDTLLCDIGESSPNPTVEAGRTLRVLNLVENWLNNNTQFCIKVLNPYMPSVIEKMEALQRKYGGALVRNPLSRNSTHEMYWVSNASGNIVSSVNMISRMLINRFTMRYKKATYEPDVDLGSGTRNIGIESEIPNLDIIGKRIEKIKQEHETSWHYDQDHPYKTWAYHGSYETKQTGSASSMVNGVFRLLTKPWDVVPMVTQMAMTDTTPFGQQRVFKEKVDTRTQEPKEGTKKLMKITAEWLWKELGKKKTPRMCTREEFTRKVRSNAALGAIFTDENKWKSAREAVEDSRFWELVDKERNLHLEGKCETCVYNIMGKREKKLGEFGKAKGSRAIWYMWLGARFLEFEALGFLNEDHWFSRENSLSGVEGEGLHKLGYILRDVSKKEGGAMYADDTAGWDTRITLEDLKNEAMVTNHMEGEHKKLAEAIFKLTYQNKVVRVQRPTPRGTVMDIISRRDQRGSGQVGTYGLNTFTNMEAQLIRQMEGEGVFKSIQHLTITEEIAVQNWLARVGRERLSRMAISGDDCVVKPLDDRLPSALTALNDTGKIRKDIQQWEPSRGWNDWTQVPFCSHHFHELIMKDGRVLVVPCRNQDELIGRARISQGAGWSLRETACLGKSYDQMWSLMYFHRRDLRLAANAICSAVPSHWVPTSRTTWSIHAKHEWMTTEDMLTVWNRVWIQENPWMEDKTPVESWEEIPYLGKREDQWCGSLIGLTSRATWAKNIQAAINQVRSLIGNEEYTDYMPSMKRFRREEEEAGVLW

[2] = target: Peroxisome proliferator-activated receptor gamma/Nuclear receptor coactivator 3 (Homo sapiens, UniProt P37231); assay: TR-FRET dose response biochemical High Throughput Screening assay for agonists of the steroid receptor coactivator 3 (SRC-3) recruitment by the peroxisome proliferator-activated receptor gamma (PPAR gamma): non-selective agonists. [Related pubchem assays: 1301 (Confirmation screen.), 1048 (Primary screen.)]; assay type: functional
[3] = target: Peroxisome proliferator-activated receptor gamma/Nuclear receptor coactivator 2 (Homo sapiens, UniProt P37231); assay: (§1) TR-FRET dose response biochemical High Throughput Screening assay for agonists of the steroid receptor coactivator 2 (SRC-2) recruitment by the peroxisome proliferator-activated receptor gamma (PPAR gamma): non-selective agonists. [Related pubchem assays: 1297, 1032 ]; assay type: functional
Chain of Peroxisome proliferator-activated receptor gamma/Nuclear receptor coactivator 2 (P37231 whole entry): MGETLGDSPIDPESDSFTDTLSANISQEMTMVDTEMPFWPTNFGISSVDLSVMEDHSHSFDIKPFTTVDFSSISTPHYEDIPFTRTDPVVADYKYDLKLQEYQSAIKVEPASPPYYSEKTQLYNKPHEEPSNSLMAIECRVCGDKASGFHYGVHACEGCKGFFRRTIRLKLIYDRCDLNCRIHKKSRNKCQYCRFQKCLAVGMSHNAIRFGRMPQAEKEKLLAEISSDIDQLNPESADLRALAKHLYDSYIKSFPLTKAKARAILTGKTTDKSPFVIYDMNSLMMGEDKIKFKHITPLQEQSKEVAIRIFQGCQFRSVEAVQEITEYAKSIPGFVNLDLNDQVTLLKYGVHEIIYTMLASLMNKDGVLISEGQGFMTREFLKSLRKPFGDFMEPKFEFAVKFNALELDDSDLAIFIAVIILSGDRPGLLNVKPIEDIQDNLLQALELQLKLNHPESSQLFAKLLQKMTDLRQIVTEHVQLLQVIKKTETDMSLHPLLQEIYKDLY
Chain of Peroxisome proliferator-activated receptor gamma/Nuclear receptor coactivator 2 (Q15596 whole entry, further chain): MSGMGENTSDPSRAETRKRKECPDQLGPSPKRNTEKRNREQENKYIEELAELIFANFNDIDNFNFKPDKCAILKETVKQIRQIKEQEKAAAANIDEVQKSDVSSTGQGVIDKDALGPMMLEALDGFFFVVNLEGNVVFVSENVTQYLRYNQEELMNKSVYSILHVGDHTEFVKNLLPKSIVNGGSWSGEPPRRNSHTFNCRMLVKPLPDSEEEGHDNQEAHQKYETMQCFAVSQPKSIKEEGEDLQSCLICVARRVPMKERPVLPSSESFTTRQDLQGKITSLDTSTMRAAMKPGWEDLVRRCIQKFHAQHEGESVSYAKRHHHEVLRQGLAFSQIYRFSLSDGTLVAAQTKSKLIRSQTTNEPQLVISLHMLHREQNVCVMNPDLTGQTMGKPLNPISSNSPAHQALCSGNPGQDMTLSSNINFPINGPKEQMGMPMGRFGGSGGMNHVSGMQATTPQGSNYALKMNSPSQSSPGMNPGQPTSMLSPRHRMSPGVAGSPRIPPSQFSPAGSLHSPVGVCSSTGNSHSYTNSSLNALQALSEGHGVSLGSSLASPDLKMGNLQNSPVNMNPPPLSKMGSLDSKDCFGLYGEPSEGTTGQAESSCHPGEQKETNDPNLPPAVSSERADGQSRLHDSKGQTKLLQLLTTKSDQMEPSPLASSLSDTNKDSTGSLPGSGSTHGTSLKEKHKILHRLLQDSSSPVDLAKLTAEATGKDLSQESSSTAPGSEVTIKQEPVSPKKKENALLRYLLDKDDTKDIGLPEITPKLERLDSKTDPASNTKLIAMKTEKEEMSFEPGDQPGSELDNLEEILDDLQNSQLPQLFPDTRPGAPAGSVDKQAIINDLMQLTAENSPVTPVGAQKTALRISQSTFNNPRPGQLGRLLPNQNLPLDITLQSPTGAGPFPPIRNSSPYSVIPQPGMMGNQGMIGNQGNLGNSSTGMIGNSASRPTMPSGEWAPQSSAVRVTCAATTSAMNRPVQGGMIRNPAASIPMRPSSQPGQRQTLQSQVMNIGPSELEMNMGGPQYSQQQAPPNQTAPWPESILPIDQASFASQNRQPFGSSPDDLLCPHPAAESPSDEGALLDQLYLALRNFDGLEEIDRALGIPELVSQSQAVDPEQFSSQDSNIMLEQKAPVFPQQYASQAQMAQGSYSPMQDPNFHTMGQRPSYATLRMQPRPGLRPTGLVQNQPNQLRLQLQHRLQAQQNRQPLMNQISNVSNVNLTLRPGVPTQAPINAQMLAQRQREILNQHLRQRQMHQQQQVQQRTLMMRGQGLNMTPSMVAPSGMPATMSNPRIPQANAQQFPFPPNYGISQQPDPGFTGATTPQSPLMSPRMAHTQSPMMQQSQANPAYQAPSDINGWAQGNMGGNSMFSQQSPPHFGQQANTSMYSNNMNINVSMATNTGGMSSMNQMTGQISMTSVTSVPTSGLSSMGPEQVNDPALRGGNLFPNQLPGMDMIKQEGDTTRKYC

[4] = HEK-293T cell viability reduction – luminescence, B-cell screen hits, cytotoxicity control for BCR NF-kB inhibitor project, dose response (AID 489021); assay type: functional, cell-based;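 note: HEK-293T cells carrying an NF-kB luciferase reporter; cells exposed to compound for about 14 hours before viability readout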
[5] = target: Peroxisome proliferator-activated receptor gamma/Nuclear receptor coactivator 1 (Homo sapiens, UniProt P37231); assay: as §1, with “1 (SRC-1)” for “2 (SRC-2)”, “assays (depositor defined):AID1300, AID1808, AID504735, AID631]” for “assays: 1297, 1032 ]”; assay type: protein assay
[6] = target: DNA dC->dU-editing enzyme APOBEC-3A (Homo sapiens, UniProt P31941); assay: Dose Response confirmation of small molecule APOBEC3A DNA Deaminase Inhibitors via a fluorescence-based single-stranded DNA deaminase assay. [Related pubchem assays (depositor defined):AID493011, AID493024]; assay type: functional
Chain of DNA dC->dU-editing enzyme APOBEC-3A (P31941 whole entry): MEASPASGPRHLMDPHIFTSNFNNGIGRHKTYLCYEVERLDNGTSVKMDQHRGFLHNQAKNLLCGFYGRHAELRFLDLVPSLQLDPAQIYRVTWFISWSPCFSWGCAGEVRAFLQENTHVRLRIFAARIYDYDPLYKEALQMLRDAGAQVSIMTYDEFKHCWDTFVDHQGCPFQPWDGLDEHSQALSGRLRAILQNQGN

[7] = target: DNA dC->dU-editing enzyme APOBEC-3G (Homo sapiens, UniProt Q9HC16); assay type: functional;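 note: Dose-response counterscreen measuring inhibition of APOBEC3G DNA deaminase activity, run while confirming APOBEC3A inhibitors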
Chain of DNA dC->dU-editing enzyme APOBEC-3G (Q9HC16 whole entry): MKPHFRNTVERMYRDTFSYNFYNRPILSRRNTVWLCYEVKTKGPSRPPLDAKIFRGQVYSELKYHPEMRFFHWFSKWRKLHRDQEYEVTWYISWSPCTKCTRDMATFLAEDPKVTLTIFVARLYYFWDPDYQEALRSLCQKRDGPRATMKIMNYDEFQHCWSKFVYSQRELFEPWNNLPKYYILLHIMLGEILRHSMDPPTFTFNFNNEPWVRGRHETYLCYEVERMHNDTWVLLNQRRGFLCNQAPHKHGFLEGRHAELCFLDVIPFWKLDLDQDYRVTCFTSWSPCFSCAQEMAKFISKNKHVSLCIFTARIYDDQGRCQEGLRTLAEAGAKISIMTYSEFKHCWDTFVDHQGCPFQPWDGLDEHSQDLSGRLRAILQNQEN

Protein RecA = target: T1, Protein RecA (Mycobacterium tuberculosis, UniProt P9WHJ3); assay: Fluorescence Cell-Free Homogeneous Dose Retest to Identify Inhibitors of RecA-Intein Splicing Activity. [Related pubchem assays (depositor defined):AID2097, AID2223, AID489010, AID492950]; assay type: functional
T1 sequence (P9WHJ3 whole entry): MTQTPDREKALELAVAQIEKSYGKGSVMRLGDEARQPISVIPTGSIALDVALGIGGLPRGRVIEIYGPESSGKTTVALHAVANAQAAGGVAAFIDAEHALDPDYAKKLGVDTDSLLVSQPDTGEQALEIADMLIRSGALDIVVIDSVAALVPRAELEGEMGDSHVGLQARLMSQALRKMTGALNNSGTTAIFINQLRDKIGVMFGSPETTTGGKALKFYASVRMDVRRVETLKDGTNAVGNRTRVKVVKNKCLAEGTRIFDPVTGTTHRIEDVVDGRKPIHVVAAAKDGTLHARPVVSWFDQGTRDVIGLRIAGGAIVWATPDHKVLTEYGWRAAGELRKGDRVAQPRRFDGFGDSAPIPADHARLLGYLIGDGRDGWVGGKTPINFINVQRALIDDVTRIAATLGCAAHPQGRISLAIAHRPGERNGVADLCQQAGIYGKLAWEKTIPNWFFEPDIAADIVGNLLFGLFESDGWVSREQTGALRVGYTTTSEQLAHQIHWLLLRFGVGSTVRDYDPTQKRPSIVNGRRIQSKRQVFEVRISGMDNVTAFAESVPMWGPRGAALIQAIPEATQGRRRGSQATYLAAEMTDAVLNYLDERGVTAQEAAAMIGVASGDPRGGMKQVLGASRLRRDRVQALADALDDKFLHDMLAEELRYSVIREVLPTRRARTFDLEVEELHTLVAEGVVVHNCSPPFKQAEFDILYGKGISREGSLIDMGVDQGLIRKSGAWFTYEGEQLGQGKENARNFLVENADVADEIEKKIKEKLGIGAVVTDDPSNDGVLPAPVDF

[8] = target: T2, Replicative DNA helicase DnaB (Mycobacterium tuberculosis, UniProt P9WMR3); assay: DnaB intein splicing inhibitors, dose response, biochemical, cell-free fluorescence (AID 449749); assay type: functional
T2 sequence (P9WMR3 whole entry): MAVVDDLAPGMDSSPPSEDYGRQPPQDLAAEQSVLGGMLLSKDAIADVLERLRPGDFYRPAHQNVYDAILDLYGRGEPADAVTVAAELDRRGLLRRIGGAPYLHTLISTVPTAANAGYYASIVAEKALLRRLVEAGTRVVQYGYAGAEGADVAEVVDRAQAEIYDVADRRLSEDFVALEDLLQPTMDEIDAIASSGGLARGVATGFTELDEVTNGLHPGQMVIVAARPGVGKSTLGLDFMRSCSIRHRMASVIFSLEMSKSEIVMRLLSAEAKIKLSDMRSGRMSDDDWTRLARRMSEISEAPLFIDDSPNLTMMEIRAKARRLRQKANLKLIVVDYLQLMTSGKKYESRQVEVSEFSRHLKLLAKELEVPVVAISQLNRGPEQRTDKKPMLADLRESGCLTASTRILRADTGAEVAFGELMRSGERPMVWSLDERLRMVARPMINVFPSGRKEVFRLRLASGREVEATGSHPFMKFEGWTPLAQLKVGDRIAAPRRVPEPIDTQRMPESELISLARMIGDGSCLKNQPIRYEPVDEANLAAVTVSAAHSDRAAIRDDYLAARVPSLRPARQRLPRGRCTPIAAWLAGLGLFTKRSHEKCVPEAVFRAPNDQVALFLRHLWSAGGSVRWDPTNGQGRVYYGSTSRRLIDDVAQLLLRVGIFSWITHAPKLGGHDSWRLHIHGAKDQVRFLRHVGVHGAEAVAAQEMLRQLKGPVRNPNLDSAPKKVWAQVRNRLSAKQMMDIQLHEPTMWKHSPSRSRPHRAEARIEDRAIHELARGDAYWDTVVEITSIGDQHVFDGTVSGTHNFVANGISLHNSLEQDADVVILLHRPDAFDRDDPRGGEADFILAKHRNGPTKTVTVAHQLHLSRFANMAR

[9] = target: 72 kDa type IV collagenase (Homo sapiens, UniProt P08253); assay: Dose Response validation of uHTS RPN11 inhibitor hits using a MMP-2 Fluorescence assay.; assay type: functional
Chain of 72 kDa type IV collagenase (P08253 whole entry): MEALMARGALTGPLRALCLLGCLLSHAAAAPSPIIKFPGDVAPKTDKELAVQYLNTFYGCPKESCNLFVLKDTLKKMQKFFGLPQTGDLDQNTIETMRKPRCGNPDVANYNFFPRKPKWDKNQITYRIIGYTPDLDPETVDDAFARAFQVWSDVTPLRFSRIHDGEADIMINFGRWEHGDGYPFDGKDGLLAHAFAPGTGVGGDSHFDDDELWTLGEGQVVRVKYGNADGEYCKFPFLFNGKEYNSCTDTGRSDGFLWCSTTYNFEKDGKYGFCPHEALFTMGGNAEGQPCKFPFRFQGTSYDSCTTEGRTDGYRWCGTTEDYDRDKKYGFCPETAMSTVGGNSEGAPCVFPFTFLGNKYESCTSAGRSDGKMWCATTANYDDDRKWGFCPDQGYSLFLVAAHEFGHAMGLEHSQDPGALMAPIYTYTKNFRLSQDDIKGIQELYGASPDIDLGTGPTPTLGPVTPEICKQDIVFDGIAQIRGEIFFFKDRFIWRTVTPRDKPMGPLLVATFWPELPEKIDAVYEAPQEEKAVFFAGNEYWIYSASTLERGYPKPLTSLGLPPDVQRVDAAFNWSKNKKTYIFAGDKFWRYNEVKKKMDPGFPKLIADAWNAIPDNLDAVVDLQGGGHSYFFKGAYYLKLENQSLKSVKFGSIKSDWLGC

Prothrombin = Prothrombin (Bos taurus, UniProt P00735); assay: thrombin protease inhibitors – biochemical, fluorescence polarization, uHTS hits, dose response (AID 602369); assay type: functional
[10] = target: T3, High affinity choline transporter 1 (Homo sapiens, UniProt Q9GZV3); assay: human choline transporter blockers, potency – cell-based, 5-point CRC, membrane potential dye, dose response (AID 504840); assay type: functional
T3 sequence (Q9GZV3 whole entry): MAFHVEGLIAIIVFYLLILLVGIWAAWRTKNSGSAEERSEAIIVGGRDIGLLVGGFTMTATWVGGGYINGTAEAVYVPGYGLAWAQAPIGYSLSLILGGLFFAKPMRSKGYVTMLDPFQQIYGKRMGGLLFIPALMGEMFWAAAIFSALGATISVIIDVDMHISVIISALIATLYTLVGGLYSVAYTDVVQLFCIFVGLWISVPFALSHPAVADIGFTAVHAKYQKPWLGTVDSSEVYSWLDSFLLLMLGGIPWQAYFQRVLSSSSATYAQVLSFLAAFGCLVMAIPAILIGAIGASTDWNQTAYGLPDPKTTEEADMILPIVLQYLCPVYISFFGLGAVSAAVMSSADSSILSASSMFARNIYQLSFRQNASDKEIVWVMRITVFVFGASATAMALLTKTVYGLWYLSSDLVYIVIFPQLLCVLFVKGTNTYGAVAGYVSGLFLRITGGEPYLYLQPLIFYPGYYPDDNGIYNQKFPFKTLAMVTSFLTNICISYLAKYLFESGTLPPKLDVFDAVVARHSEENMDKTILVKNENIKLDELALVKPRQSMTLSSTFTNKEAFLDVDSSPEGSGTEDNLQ

[11] = target: 26S proteasome non-ATPase regulatory subunit 14 (Homo sapiens, UniProt O00487); assay: inhibition of proteasome subunit RPN11 – biochemical, fluorescence polarization, uHTS hits, confirmation (AID 602368); assay type: functional
Chain of 26S proteasome non-ATPase regulatory subunit 14 (O00487 whole entry): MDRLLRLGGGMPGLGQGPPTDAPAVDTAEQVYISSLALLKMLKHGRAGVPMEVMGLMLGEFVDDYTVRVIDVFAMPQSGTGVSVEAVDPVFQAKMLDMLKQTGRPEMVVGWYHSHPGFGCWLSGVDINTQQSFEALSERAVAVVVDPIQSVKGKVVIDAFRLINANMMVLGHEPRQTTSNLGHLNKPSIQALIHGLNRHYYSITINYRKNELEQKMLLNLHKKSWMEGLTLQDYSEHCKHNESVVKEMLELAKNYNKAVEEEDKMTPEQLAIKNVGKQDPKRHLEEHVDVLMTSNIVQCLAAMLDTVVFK

Nonstructural protein 1 = Nonstructural protein 1 (Influenza A virus, UniProt Q194T2); assay type: functional, Influenza A virus (A/California/07/2009(H1N1))
Chain of Nonstructural protein 1 (Q194T2 whole entry): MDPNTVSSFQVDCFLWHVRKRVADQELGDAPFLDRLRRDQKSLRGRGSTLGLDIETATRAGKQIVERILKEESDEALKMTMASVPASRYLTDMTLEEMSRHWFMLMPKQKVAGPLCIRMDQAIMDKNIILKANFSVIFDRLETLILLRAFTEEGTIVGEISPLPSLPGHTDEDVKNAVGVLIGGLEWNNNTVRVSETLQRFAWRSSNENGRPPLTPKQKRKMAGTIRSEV

[12] = target: T4, Zinc finger protein mex-5 (Caenorhabditis elegans, UniProt Q9XUB2); assay: potency of MEX-5 RNA-binding blockers – biochemical, C. elegans, fluorescence polarization, dose response (AID 1960)
T4 sequence (Q9XUB2 whole entry): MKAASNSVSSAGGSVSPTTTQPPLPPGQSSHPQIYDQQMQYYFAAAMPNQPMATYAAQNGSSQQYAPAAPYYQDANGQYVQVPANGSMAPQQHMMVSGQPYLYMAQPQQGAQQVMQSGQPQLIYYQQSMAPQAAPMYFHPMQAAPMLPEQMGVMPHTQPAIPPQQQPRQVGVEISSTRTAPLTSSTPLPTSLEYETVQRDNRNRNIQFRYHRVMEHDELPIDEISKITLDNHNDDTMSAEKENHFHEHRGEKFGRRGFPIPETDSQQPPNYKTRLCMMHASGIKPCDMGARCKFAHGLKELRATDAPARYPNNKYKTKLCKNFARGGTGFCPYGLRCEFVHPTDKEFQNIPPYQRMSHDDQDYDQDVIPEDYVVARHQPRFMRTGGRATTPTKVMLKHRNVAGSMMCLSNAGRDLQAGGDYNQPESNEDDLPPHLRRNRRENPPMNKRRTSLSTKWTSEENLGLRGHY

[13] = target: T5, RNA-binding protein pos-1 (Caenorhabditis elegans, UniProt G5EF15); assay: disruptors of C. elegans POS-1 RNA interaction – biochemical, fluorescence polarization, dose response (AID 1964);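 note: purified POS-1 fused to maltose binding protein made in E. coli; potency of compounds blocking POS-1 binding to fluorescent RNA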
T5 sequence (G5EF15 whole entry): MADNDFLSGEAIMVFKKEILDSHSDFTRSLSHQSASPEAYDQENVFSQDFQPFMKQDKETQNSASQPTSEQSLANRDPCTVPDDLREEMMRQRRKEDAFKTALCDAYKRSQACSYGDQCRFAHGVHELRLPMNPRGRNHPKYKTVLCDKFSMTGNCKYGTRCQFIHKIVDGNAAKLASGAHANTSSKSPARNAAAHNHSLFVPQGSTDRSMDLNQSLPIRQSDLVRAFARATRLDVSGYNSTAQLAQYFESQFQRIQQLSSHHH

[14] = target: T6, Heat shock factor protein 1 (Mus musculus, UniProt P38532); assay: decrease of HSF1-responsive luciferase luminescence – cell-based, NIH3T3, dose retest, confirmation (AID 2382); assay type: functional;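 note: NIH3T3 fibroblasts with HSF1-driven luciferase reporter stressed by proteasome inhibitor MG132; luminescence from HSF1-driven luciferase expression after 8 hours of MG132 stress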
T6 sequence (P38532 whole entry): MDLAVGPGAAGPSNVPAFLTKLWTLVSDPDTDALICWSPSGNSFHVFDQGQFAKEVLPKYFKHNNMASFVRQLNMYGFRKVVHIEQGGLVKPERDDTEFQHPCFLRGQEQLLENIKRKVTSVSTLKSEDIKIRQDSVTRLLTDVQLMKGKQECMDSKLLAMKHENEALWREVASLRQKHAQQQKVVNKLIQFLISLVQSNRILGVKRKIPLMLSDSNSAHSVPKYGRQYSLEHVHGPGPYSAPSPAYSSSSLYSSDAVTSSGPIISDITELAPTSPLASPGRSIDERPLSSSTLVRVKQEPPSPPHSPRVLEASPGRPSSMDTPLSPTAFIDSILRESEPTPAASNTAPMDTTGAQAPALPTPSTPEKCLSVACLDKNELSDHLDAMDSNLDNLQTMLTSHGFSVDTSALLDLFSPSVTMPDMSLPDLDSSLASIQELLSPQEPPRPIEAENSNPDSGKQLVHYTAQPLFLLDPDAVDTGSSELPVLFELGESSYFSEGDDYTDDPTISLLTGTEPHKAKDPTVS

[15] = target: T7, Carboxy-terminal domain RNA polymerase II polypeptide A small phosphatase 1 (Homo sapiens, UniProt Q9GZU7); assay: CTDSP1 inhibitors, concentration-response, biochemical, absorbance readout, ultra-high-throughput screen actives (AID 540297); assay type: functional
T7 sequence (Q9GZU7 whole entry): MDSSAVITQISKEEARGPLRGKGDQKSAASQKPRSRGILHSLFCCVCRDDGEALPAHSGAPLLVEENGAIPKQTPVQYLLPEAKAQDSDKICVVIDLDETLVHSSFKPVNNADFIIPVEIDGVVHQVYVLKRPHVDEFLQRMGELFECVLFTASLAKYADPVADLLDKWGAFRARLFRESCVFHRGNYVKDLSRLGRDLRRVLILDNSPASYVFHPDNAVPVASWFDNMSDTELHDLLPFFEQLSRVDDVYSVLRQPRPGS

Chain of Phospholipase A2 (P04054 whole entry): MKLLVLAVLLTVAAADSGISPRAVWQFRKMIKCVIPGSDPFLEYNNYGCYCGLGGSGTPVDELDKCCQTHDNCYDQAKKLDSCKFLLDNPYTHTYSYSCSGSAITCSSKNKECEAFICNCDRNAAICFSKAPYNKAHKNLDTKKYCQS

CCCOc1ccc2ccccc2c1/C=C1\SC(=O)NC1=O
AC50 [1]: 6.89 µM (active)
IC50 (Phospholipase A2): 15.9 µM (active)

COc1cc(/C=C2/C(=O)NC(=O)N(c3ccccc3)C2=O)ccc1O
IC50 (Genome polyprotein): > 100 µM (active)

CCn1c(=O)cc(SCC(=O)N2CCOCC2)c2ccccc21
EC50 [2]: > 79.4 µM (not active)
EC50 [3]: > 79.4 µM (not active)
IC50 [4]: > 80 µM (inactive)
EC50 [5]: > 79.4 µM (inactive)

O=C(COc1ccccc1/C=C1/NC(=O)NC1=O)Nc1ccccc1
IC50 [6]: 3.71 µM (active)
IC50 [7]: 3.26 µM (active)

CCOc1c(Br)cc(/C=C2\C(=O)N(CCC#N)N=C2C)cc1OC
EC50 (Protein RecA): 1.8 µM (active)
AC50 [8]: 3.43 µM (active)
IC50 (Genome polyprotein): > 100 µM (active)

COc1cc(/C=C2/C(=O)N(c3cccc(Br)c3)N=C2C)cc(OC)c1O
IC50 [9]: > 100 µM (inactive)
IC50 (Prothrombin): 39 µM (active)
IC50 [10]: 13.8 µM (active)
IC50 [11]: 23.1 µM (active)
EC50 (Protein RecA): 1.6 µM (active)
IC50 (Nonstructural protein 1): 14.5 µM (active)
AC50 [8]: 3.93 µM (active)

Cc1ccc(N2C(=O)NC(=O)/C(=C\c3cc(C)n(-c4ccc(C(=O)O)cc4)c3C)C2=O)cc1
EC50 [12]: 6.96 µM (active)
EC50 [13]: > 300 µM (not active)
IC50 (Genome polyprotein): > 100 µM (active)

COc1ccc(CNC(=O)c2nnn(CC(=O)Nc3cc(C)cc(C)c3)c2N)cc1
IC50 [9]: > 100 µM (inactive)
IC50 (Prothrombin): 63 µM (active)
IC50 [11]: 18.9 µM (active)
EC50 [14]: > 195 µM (not active)

COc1ccccc1-c1nnc(S)o1
EC50 [2]: > 79.4 µM (not active)
EC50 [3]: 11.9 µM (not active)
EC50 [5]: 59.1 µM (inactive)

O=C(O)c1cc(/C=C/C(=O)c2cc(F)ccc2O)c2c(c1)COCO2
IC50 (Genome polyprotein): > 100 µM (active)

CSc1ccc(NC(=O)CSc2nc3[nH]c(=O)cc(O)c3s2)cc1
IC50 [9]: 40.4 µM (active)
IC50 (Prothrombin): 88.3 µM (active)
IC50 [11]: 68 µM (active)
IC50 [15]: 4.06 µM (active)
